Laboratory results: US10017527B2, “KLK4 inhibitors” (Universiteit Antwerpen, priority 2014, dated 2018)
pIC50: −log10 of the molar value.

Tests used:
Type in all cases: biochemical
KLK4 [1] = biological target: T1, KLK4 (Homo sapiens, UniProt Q9Y5K2); experiment: KLK4 enzymatic inhibition, fluorogenic substrate Boc-Val-Pro-Arg-AMC
T1 construct: purchased Viktor Magdolen (TUM), supplied by an academic laboratory
Protocol: The substrate was obtained form Bachem and the enzyme was provided by Viktor Magdolen (TUM). The reaction was monitored with an excitation wavelength of 355 nm and emission wavelength of 460 nm. The initial rate was determined between 2500000 and 4500000 mRFU/min. The reaction mixture contained 25 μM substrate and approximately 1 mU of enzyme in 145 μL of buffer in a final volume of […]. A 50 mM Tris buffer, pH 8.3, was used. From each inhibitor concentration, 5 μL was added, obtaining a final concentration from 0 to 250 μM in a total volume of 0.2 mL. Activity measurements were routinely performed in duplicate. […] IC50 values were obtained by fitting the data with the four-parameter logistics equation using Grafit 7.
[formula] where s=slope factor, v=rate, I0=inhibitor concentration, and range=the fitted uninhibited value minus the background. The equation assumes they falls with increasing x.
(§1) Inhibitor stock solutions were prepared in DMSO and stored at −20° C. Because the compounds described in this paper completely inactivate KLK4 following pseudo first-order kinetics, the IC50 value is inversely correlated with the second-order rate constant of inactivation. For a simple pseudo first-order inactivation process, the activity after incubation with inhibitor (vi) varies with the inhibitor concentration (i), as described in the following equation: vi=v0×e^−k t, where vo is the activity in absence of inhibitor, k is the second-order rate constant of inactivation, and t is the time. The inactivation rate constant was determined from the time course of inhibition.

KLK4 [2] = biological target: T1, KLK4; experiment: KLK4 inactivation kinetics from progress curves (kobs vs inhibitor concentration); settings: for Irreversible (KLK4): irreversible binding to KLK4, Yes/No
Protocol: as §1
The inhibitor was mixed with the substrate (250 μM final concentration), and the buffer solution with the enzyme was added at the time zero. […] The progress curves show the absorbance of aminomethylcoumarine produced as a function of time. Initially, no inhibitor is bound to the enzyme, and the tangent to the progress curve (dA/dt) is proportional to the concentration of the free enzyme. The concentration of free enzyme decreases over time due to the kinetics of inhibitor binding, as described above. Progress curves were recorded in pseudo first-order conditions ([I]0>>[E]0) and with less than 10% conversion of the substrate during the entire time course. In these conditions, dA/dt decreases exponentially with time. The progress curves were fitted with the integrated rate equation to yield a value for kobs, a pseudofirst-order rate constant At=v0[1−e^−k^obs^t]/kobs+A0 where At=absorbance at time t, A0=absorbance at time zero, and v0=uninhibited initial rate.
The apparent second-order rate constant (kapp) was calculated from the slope of the linear part of the plot of kobs versus the inhibitor concentration ([I]0). In case of competition between the inhibitor and the substrate, kapp is smaller than the “real” second order rate constant k discussed above because a certain fraction of the enzyme is present as an enzyme-substrate complex. kapp depends on the substrate concentration used in the experiment, as described by Lambeir et al. (Lambeir, Borloo et al. 1996).

KLK2 (human) = biological target: T2, KLK2 (human) (Homo sapiens, UniProt P20151); experiment: KLK2 inhibition, fluorogenic substrate H-Pro-Phe-Arg-AMC
T2 construct: purchased Viktor Magdolen, TUMunich (TUM), supplied by an academic laboratory
T2 sequence (P20151 25-261): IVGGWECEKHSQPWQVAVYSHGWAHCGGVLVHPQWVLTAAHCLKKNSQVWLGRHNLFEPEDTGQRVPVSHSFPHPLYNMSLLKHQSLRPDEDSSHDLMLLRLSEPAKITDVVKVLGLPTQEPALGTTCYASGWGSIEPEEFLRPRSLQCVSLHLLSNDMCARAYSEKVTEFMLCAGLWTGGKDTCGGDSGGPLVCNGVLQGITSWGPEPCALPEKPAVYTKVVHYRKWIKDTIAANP
From the text: (§2) The IC50 values For KLK1, KLK2 and KLK8 were obtained in a similar way. For plasmin, tPA, thrombin, Fxa, HNE, Plasma kallikrein Chromogenic substrates were used (absorption: 405 nm). (KLK2, KLK4, KLK8 were supplied by Viktor Magdolen TUMunich (TUM)).

KLK1 (human) = biological target: T3, KLK1 (human) (Homo sapiens, UniProt P06870); experiment: KLK1 inhibition, fluorogenic substrate H-Pro-Phe-Arg-AMC
T3 construct: purchased Prospec
T3 sequence (P06870 25-262): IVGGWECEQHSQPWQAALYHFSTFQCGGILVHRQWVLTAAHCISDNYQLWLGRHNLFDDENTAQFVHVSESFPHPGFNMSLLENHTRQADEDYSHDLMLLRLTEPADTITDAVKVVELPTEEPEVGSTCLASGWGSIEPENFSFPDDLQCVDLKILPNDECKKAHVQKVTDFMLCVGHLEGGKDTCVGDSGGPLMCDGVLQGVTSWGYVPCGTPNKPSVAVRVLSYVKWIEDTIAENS
From the text: as §2

KLK8 (human) = biological target: T4, KLK8 (human) (Homo sapiens, UniProt O60259); experiment: KLK8 inhibition, fluorogenic substrate Boc-Val-Pro-Arg-AMC
T4 construct: purchased Viktor Magdolen, TUMunich (TUM), supplied by an academic laboratory
T4 sequence (O60259 33-260): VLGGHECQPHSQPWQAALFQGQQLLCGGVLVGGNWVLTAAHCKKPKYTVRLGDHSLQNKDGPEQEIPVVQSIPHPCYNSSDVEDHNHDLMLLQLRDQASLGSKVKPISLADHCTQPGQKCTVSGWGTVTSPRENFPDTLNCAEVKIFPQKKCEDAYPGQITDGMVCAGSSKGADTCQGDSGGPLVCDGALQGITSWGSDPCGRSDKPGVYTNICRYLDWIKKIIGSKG
From the text: as §2

uPA (recombinant) = biological target: T5, uPA (recombinant) (Homo sapiens, UniProt P00749); experiment: uPA inhibition, chromogenic substrate Biophen CS-61(44)
T5 construct: purchased Nodia

tPA (recombinant) = biological target: T6, tPA (recombinant) (Homo sapiens, UniProt P00750); experiment: tPA inhibition, chromogenic substrate Biophen CS-05(88)
T6 construct: purchased Nodia
T6 sequence (P00750 36-562, species assumed): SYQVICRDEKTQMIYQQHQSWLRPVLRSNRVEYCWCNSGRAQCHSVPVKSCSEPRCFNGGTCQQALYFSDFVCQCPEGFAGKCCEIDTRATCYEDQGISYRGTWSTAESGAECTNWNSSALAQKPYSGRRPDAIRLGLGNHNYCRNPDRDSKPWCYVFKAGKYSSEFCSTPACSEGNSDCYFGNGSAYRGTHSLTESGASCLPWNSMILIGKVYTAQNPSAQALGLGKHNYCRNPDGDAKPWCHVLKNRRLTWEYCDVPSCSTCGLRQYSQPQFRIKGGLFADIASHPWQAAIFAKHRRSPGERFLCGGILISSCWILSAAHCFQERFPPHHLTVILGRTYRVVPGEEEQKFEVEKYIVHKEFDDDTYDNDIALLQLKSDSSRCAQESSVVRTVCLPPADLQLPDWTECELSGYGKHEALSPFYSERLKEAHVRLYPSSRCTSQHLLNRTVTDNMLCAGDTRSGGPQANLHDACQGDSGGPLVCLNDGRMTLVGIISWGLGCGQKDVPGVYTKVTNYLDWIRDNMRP
From the text: as §2

Thrombine (human plasma) = biological target: T7, Thrombine (human plasma) (Homo sapiens, UniProt P00734); experiment: Thrombin inhibition, chromogenic substrate Biophen CS-21(66)
T7 construct: purchased Sigma-Aldrich; host or cells: human plasma

Plasmine (human plasma) = biological target: T8, Plasmine (human plasma) (Homo sapiens, UniProt P00747); experiment: Plasmin inhibition, chromogenic substrate Biophen CS-21(66)
T8 construct: purchased Sigma-Aldrich; host or cells: human plasma
T8 sequence (P00747 581-810 limits assumed): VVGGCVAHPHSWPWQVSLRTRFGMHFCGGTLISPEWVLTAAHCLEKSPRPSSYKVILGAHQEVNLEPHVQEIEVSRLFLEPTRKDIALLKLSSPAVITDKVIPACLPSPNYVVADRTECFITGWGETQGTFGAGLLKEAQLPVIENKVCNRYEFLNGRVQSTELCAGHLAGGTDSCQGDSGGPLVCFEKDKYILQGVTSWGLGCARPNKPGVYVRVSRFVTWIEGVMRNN
T8 sequence (P00747 98-580 partner limits assumed): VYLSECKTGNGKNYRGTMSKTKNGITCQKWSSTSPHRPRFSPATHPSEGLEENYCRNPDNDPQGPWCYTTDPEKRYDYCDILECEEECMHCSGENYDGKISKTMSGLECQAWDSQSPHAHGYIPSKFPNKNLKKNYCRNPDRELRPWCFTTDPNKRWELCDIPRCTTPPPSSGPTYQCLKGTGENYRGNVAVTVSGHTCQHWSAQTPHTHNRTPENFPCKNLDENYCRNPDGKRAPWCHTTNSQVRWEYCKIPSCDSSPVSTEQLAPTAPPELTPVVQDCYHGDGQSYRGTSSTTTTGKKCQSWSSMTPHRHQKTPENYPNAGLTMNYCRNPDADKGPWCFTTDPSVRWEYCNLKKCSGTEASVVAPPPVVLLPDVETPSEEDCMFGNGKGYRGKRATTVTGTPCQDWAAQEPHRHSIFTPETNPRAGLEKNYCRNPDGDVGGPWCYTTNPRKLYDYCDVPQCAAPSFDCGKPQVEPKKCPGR
From the text: as §2

FXa = biological target: T9, FXa (Homo sapiens, UniProt P00742); experiment: FXa inhibition, chromogenic substrate Biophen CS-11(32)
T9 construct: purchased Nodia
T9 sequence (P00742 235-488 limits assumed): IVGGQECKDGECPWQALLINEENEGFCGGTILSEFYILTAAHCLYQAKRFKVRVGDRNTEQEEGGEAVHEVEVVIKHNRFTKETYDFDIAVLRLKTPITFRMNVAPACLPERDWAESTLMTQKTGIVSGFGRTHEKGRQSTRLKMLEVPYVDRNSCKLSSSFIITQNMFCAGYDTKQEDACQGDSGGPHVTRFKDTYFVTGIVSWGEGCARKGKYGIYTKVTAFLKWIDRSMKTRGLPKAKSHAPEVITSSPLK
T9 sequence (P00742 41-179 partner limits assumed): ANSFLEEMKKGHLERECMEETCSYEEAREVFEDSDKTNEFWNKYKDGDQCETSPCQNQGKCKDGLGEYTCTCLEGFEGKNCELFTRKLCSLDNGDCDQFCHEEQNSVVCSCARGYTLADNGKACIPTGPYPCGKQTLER
From the text: as §2

PlasmaKLK (human plasma) = biological target: T10, PlasmaKLK (human plasma) (Homo sapiens, UniProt P03952); experiment: Plasma kallikrein inhibition, chromogenic substrate Biophen CS-31(02)
T10 construct: purchased Sigma-Aldrich; host or cells: human plasma
T10 sequence (P03952 391-638 limits assumed): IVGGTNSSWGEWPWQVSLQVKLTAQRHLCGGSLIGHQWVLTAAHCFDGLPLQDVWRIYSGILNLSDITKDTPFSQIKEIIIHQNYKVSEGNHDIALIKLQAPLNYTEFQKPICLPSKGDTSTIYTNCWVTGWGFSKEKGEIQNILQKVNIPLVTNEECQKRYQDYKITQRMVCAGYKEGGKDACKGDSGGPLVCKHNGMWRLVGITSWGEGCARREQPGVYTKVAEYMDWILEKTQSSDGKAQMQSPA
T10 sequence (P03952 20-390 partner limits assumed): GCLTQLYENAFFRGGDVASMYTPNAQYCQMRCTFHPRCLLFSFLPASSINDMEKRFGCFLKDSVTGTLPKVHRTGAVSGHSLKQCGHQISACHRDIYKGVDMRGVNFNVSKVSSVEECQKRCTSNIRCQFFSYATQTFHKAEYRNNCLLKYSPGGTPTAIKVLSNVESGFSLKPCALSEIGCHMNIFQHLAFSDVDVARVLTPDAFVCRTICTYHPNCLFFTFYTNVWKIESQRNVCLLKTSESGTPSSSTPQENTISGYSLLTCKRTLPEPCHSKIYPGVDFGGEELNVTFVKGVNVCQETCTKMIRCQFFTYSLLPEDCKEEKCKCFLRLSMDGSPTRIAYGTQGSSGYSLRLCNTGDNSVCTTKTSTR
From the text: as §2

[3] = biological target: T11, Neurtophil Elastase(human) (Homo sapiens, UniProt P08246); experiment: Neutrophil elastase inhibition, chromogenic substrate MeOSuc-Ala-Ala-Pro-Val-pNA
T11 construct: purchased Enzo-life sciences
T11 sequence (P08246 30-267): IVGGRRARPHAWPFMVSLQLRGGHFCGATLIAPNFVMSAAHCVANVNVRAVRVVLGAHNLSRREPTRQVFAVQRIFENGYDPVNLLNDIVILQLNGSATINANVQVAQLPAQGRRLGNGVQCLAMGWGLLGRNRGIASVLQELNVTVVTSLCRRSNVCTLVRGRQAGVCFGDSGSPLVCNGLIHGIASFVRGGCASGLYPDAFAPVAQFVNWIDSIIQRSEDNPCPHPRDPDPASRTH
From the text: as §2

AcHE = AcHE (Homo sapiens, UniProt P22303); experiment: AcHE inhibition
Sequence of AcHE (P22303 32-614): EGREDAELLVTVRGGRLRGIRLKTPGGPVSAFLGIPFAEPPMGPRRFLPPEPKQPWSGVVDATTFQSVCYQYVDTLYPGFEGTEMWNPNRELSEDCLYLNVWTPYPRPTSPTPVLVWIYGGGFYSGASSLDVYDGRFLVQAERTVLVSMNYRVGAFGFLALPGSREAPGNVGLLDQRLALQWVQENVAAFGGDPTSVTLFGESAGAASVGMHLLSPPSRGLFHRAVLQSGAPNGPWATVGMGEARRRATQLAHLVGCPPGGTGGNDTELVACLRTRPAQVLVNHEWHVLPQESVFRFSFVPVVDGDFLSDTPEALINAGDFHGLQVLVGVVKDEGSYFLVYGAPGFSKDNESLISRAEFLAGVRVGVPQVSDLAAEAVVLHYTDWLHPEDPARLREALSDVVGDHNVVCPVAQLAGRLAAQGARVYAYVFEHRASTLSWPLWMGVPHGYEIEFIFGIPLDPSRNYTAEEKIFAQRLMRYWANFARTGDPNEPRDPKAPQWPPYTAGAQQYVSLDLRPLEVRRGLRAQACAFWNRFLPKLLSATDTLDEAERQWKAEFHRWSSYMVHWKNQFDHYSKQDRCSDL

Matriptase = biological target: T12, Matriptase (Homo sapiens, UniProt Q9Y5Y6); experiment: Matriptase inhibition
T12 sequence (Q9Y5Y6 1-855): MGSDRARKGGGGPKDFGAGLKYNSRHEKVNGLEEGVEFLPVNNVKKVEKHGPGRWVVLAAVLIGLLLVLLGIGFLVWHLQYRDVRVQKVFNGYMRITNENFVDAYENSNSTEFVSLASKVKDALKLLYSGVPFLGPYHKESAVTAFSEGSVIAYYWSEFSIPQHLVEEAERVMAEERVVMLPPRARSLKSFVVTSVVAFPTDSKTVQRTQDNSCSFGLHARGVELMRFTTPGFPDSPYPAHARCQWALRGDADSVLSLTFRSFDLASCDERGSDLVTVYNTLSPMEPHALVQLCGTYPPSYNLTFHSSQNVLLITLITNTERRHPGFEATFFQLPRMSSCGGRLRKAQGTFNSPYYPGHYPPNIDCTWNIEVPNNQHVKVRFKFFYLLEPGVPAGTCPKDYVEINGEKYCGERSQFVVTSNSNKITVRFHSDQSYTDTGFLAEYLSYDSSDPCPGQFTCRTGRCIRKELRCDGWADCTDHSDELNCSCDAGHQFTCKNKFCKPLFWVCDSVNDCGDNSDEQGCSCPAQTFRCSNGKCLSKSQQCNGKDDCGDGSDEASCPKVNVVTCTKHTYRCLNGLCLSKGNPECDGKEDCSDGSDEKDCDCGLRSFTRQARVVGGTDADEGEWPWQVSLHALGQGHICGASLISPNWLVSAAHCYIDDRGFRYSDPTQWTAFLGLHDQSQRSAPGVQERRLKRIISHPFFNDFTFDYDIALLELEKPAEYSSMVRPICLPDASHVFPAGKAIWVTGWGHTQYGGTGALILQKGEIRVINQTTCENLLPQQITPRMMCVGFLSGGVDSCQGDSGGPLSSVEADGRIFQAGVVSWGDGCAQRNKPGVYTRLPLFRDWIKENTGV

T1 sequence (Q9Y5K2 31-254): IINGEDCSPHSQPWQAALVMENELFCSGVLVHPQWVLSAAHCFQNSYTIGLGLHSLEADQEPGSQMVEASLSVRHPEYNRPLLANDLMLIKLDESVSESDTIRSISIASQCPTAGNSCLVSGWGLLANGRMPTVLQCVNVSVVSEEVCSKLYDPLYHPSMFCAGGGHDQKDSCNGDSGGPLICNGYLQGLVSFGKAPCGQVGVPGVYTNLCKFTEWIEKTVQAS

N=C(N)Nc1ccc(C(NC(=O)OCc2ccccc2)P(=O)(Oc2ccccc2)Oc2ccccc2)cc1 (stereo not drawn) [Compound 5a, benzyl (diphenoxyphosphoryl)(4-guanidinophenyl)methylcarbamate 2,2,2-trifluoroacetate, reference compound]
pIC50 (KLK4 [1]): > 7.00 | binding mechanism against KLK4 (KLK4 [2]): reversible | pIC50 (KLK2 (human)): > 7.00 | pIC50 (KLK1 (human)): 6.00 to 7.00 | pIC50 (KLK8 (human)): 5.60 to 6.00 | pIC50 (uPA (recombinant)): 5.00 to 5.60 | pIC50 (tPA (recombinant)): < 3.60 | pIC50 (Thrombine (human plasma)): < 3.60 | pIC50 (Plasmine (human plasma)): 5.00 to 5.60 | pIC50 (FXa): 5.00 to 5.60 | pIC50 (PlasmaKLK (human plasma)): 5.00 to 5.60 | pIC50 [3]: 3.60 to 5.00 | pIC50 (AcHE): 3.60 to 5.00 | pIC50 (Matriptase): 5.00 to 5.60

C#CCOCCOCCOC(=O)NC(c1ccc(NC(=N)N)cc1)P(=O)(Oc1ccccc1)Oc1ccccc1.O=C(O)C(F)(F)F (stereo not drawn) [Compound 27, 2-(2-(prop-2-yn-1-yloxy)ethoxy)ethyl ((diphenoxyphosphoryl)(4-guanidinophenyl)methyl)carbamate 2,2,2-trifluoroacetate]
pIC50 (KLK4 [1]): > 7.00 | kapp KLK4 (KLK4 [2]; apparent second-order rate constant, substrate 250 μM): 16000 M⁻¹ s⁻¹ | Irreversible (KLK4) (KLK4 [2]): Yes/ | pIC50 (KLK2 (human)): 5.60 to 6.00 | pIC50 (KLK1 (human)): 5.00 to 5.60 | pIC50 (KLK8 (human)): 3.60 to 5.00 | pIC50 (uPA (recombinant)): 5.00 to 5.60 | pIC50 (tPA (recombinant)): < 3.60 | pIC50 (Thrombine (human plasma)): < 3.60 | pIC50 (FXa): 3.60 to 5.00 | pIC50 (PlasmaKLK (human plasma)): 3.60 to 5.00 | pIC50 [3]: 5.00 to 5.60 | pIC50 (AcHE): 3.60 to 5.00 | pIC50 (Matriptase): 5.00 to 5.60

N=C(N)Nc1ccc(CC(NC(=O)OCc2ccccc2)P(=O)(Oc2ccccc2)Oc2ccccc2)cc1 (stereo not drawn) [UPA1, reference compound]
pIC50 (KLK4 [1]): > 7.00 | binding mechanism against KLK4 (KLK4 [2]): reversible | Irreversible (KLK4) (KLK4 [2]): No | pIC50 (KLK2 (human)): > 7.00 | pIC50 (KLK1 (human)): 5.00 to 5.60 | pIC50 (KLK8 (human)): > 7.00 | pIC50 (tPA (recombinant)): 3.60 to 5.00 | pIC50 (Thrombine (human plasma)): 5.60 to 6.00 | pIC50 (Plasmine (human plasma)): 5.00 to 5.60 | pIC50 (FXa): 3.60 to 5.00 | pIC50 (PlasmaKLK (human plasma)): 5.00 to 5.60 | pIC50 [3]: 3.60 to 5.00 | pIC50 (AcHE): 3.60 to 5.00 | pIC50 (Matriptase): 6.00 to 7.00
